The values below come from ChEMBL document CHEMBL3044746, “Molecular modeling and pharmacophore approach for structural requirements of some 2-substituted-1-naphthols derivatives as potent 5-lipoxygenase inhibitors” (Med Chem Res, 2013).

pIC50: −log10 of the molar value.

The target in the experiment is T1, Polyunsaturated fatty acid 5-lipoxygenase (Rattus norvegicus, UniProt P12527).
T1 sequence (P12527 whole entry): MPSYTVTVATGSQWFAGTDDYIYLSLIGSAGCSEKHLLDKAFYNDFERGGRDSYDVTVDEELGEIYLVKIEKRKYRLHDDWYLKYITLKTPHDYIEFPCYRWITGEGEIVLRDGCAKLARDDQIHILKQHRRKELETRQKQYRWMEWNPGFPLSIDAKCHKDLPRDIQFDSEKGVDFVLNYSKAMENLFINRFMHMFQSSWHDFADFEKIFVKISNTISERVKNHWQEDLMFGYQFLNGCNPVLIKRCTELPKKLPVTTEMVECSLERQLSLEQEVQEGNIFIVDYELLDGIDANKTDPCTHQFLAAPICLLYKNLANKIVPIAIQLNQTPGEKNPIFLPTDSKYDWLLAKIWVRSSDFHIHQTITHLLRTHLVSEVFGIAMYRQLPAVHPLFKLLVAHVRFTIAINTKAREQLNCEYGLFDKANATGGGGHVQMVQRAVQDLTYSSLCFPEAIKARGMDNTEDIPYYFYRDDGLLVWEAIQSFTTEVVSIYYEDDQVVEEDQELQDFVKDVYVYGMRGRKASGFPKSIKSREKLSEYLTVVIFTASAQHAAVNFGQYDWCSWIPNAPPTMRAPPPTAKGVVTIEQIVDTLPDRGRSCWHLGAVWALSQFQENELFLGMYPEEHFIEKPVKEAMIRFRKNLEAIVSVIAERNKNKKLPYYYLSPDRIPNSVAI
Briefly: Inhibition of 5-lipoxygenase in Rattus norvegicus Rat basophil leukemia cells (RBL) cells.
What is called pIC50 is −log10 of the IC50, conventionally taken in molar units. Lower therefore signals a large IC50. As for `CCOc1ccccc1Cc1ccc2ccccc2c1O`, the pIC50 is 7.24.

`O=C(Oc1ccccc1)c1cc(Cc2ccccc2)c(O)c2ccccc12` had a pIC50 of 6.80.

The molecule `CCc1ccc2ccccc2c1O` had a pIC50 of 6.74.

Consider `Oc1c(/C=C/c2ccccc2)ccc2ccccc12`, for which the pIC50 was 6.80.
